Results as given in PubChem BioAssay (NCI).
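Interpolation was linear, between the two tested concentrations surrounding the appropriate level; five concentrations were tested over 48 hours in 96-well plates. TGI denotes the concentration required for complete inhibition of growth.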

What was measured:
Assay in all cases: DTP human tumour cell line panel, 48 h
[1] = tested on: 786-0 renal
[2] = tested on: A498 renal
[3] = tested on: A549 NSCLC
[4] = tested on: ACHN renal
[5] = tested on: BT-549 breast
[6] = tested on: CAKI-1 renal
[7] = tested on: CCRF-CEM leukemia
[8] = tested on: COLO 205 colon
[9] = tested on: DU-145 prostate
[10] = tested on: EKVX NSCLC
[11] = tested on: HCC-2998 colon
[12] = tested on: HCT-116 colon
[13] = tested on: HCT-15 colon
[14] = tested on: HL-60(TB) leukemia
[15] = tested on: HOP-62 NSCLC
[16] = tested on: HOP-92 NSCLC
[17] = tested on: HS 578T breast
[18] = tested on: HT29 colon
[19] = tested on: IGROV1 ovarian
[20] = tested on: K-562 leukemia
[21] = tested on: KM12 colon
[22] = tested on: LOX IMVI melanoma
[23] = tested on: M14 melanoma
[24] = tested on: MALME-3M melanoma
[25] = tested on: MCF7 breast
[26] = tested on: MDA-MB-231 breast
[27] = tested on: MDA-MB-435
[28] = tested on: MDA-N
[29] = tested on: NCI-H226 lung
[30] = tested on: NCI-H23 lung
[31] = tested on: NCI-H460 lung
[32] = tested on: NCI-H522 lung
[33] = tested on: NCI/ADR-RES ovarian
[34] = tested on: OVCAR-4 ovarian
[35] = tested on: OVCAR-5 ovarian
[36] = tested on: OVCAR-8 ovarian
[37] = tested on: PC-3 prostate
[38] = tested on: RPMI-8226 leukemia
[39] = tested on: RXF 393 renal
[40] = tested on: SF-268 CNS
[41] = tested on: SF-295 CNS
[42] = tested on: SK-MEL-2 melanoma
[43] = tested on: SK-MEL-28 melanoma
[44] = tested on: SK-MEL-5 melanoma
[45] = tested on: SK-OV-3 ovarian
[46] = tested on: SN12C renal
[47] = tested on: SNB-19 CNS
[48] = tested on: SNB-75 CNS
[49] = tested on: SR leukemia
[50] = tested on: SW-620 colon
[51] = tested on: TK-10 renal
[52] = tested on: U251 CNS
[53] = tested on: UACC-257 melanoma
[54] = tested on: UACC-62 melanoma
[55] = tested on: UO-31 renal
[56] = tested on: MOLT-4 leukemia
[57] = tested on: SF-539 CNS
[58] = tested on: T-47D breast

Measured: TGI

Cc1cn([C@@H]2C[C@](C)(CO)N(C)O2)c(=O)[nH]c1=O
not listed: [56] | [57] | [58]
> 100 µM: all other assays above

O=C1CCc2cc3c(cc21)C(C(=O)O)CC3 (stereo not given)
not listed: [2] | [16] | [27]
> 100 µM: all other assays above
